Patent publication US12458581B2, “Carboxylic acid loaded salt carrier and the method for producing thereof” (priority 2021, dated 2025)
Read-outs that look alike come from different tables or passages of the source.

Assays:
[1] = Application as additive in liquid shaving soap
Text: The mix was stirred with hard soap pieces remaining undissolved and placed for 50 seconds at 600 W in a microwave oven. […] The mixture was placed for 80 seconds in a microwave at 600 W. Thereafter the resulting mixture was hand-blended and filled into a jar for testing and storage.

[2] = tested on: Enterobacteria/β-Glucoronidase-positive-Enterobacteria (E/β); assay: Silage preservation: E/β count; settings: forage, 0.5 wt % topical, r.t., 31 days
Method: (§1) All tests were conducted under equal conditions. […] The additives were dosed at 0.5 wt % and were applied topically to the samples. […] The preservation effectiveness was established by testing for total bacteria count (TBC), yeast/fungi count and Enterobacteria/β-Glucoronidase-positive-Enterobacteria (E/β).

[3] = tested on: yeast/fungi; assay: Silage preservation: yeast/fungi count; settings: forage, 0.5 wt % topical, r.t., 31 days
Method: as §1

[4] = tested on: total bacteria count (TBC); settings: forage, 0.5 wt % topical, r.t., 31 days
Method: as §1

[5] = pH measurement of 0.1 M aqueous solutions; assay type: physicochemical; settings: 0.1 M in millipore water, r.t., average of at least three measurements
Text: For the pH measurements, a Seven2Go portable pH meter S2 (pH measuring-range: −2 to 20; resolution: 0.01) with an InLab Ultra Micro-ISM electrode (measuring range: pH −1 to pH 11; low temperature membrane glass type; ceramic diaphragm; reference system with Ag^+ ion trap by argenthal) as well as with an in-lab routine pH electrode (measuring range: pH 0 to pH 14; ceramic diaphragm; reference system with Ag^+ ion trap by argenthal) from Mettler-Toledo AG (Analytical, Switzerland) was used.
For sake of comparability, compounds of the same loading ratio n=2, which is 2:1 of the loaded carboxylic acid with respect to the carrier carboxylic acid, were selected for this analysis. […] The analytes were dissolved in millipore water, stirred for 5 minutes in an airtight vial to perform the pH measurements thereafter at r.t. All measurements were performed at 0.1 molar (M) concentration of the samples, which is 0.1 mol per liter (mol/L).
For sake of reliability, every result stated is the average of at least three single measurements. […] The numbers 1-73 (nr., first row) are used as an assignment for the 73 pairs, comprising the compound of invention (third row), the corresponding carrier carboxylic acid (fourth row) and the loaded carboxylic acid (fifth row), as used in the FIG. 6.

[6] = mean particle diameter
[7] = Thermal analysis (TGA/DTA); assay type: physicochemical
Method: Thermal analysis was carried out with a Linseis STA 1600 simultaneous thermal analyzer to determine simultaneous changes of weight (TGA signal) and caloric measurable transformations (DTA signal) in a temperature range between r.t. and 300° C.

| Compound | E/β count [2] | yeast count [3] | TBC [4] | pH values compound [5] | stability (>24 h) [1] | other results |
| --- | --- | --- | --- | --- | --- | --- |
| O=C([O-])CC(O)(CC(=O)[O-])C(=O)[O-].O=C([O-])CC(O)(CC(=O)[O-])C(=O)[O-].[Ca+2].[Ca+2].[Ca+2] [calcium citrate] | – | – | – | – | – | stability (>24 h) ([1]; liquid shaving soap, additive 1 or 2 % wt): yes |
| O=CO.O=CO.O=C[O-].O=C[O-].[Ca+2] [CaFo-HFo [2], calcium formate with loaded formic acid] | dramatically reduce | dramatically reduce | dramatically reduce | 5.19 | – | – |
| CCC(=O)O.CCC(=O)O.O=C[O-].O=C[O-].[Ca+2] [CaFo-HProp [2], calcium formate with loaded propionic acid] | dramatically reduce | dramatically reduce | dramatically reduce | 5.79 | – | growth of β-Glucoronidase-positive-Enterobacteria (especially E. coli) [2]: completely inhibit; growth of yeasts [3]: completely inhibit |
| O=C(O)CC(O)C(=O)O (stereo not drawn) [malic acid] | – | – | – | – | no | – |
| CC(=O)O.CC(=O)O.CC(=O)[O-].CC(=O)[O-].[Ca+2] [CaAc-HAc [2], calcium acetate with loaded acetic acid] | – | – | – | 5.05 | – | dav [6]: 221 μm; dav ([6]; listed as CaAc—HAc [2]): approximately 220 μm; thermal stability of the carrier carboxylic acid salt ([7]; TGA/DTA between r.t. and 300° C.): ≤ 300 °C; first loss of weight (TGA) ([7]; partially hydrated sample prior drying, 25-135° C.): −7.0 wt % of total weight; second stage of weight-loss (TGA) ([7]; partially hydrated sample prior drying, 135-300° C.): 11.7 wt % of the total weight; overall loss of weight (TGA) ([7]; partially hydrated sample, between r.t. and 300° C.): 18.74% |
| CC(O)C(=O)O.CC(O)C(=O)O.O=C([O-])c1ccccc1O.O=C([O-])c1ccccc1O.[Ca+2] [CaSal-HLac [2], calcium salicylate with loaded lactic acid] | – | – | – | 3.43 | yes | – |
